The test system of experiment [1] is panel of human tumor cell lines (A431, MCF-7, A375, HCT-15, SW480, CaCo-2, DLD-1). The experiment can be described thus: MTT cytotoxicity, comparison over the Table 1 panel. It is filed as cell-based. Particulars: in five out of the seven cell lines. As for the experimental part: (§1) After 24 h, the medium was removed and replaced with a fresh one containing the compound to be studied, at the appropriate concentration, dissolved in 0.9% sodium chloride solution just before use. Triplicate cultures were established for each treatment. After 72 h, each well was treated with […] of a 5 mg mL^−1 MTT saline solution and, after 5 h of incubation, 100 μL of a sodium dodecylsulfate (SDS) solution in 0.01 M HCl were added. After an overnight incubation, the inhibition of cell growth induced by the tested complexes was determined by measuring the absorbance of each well at 570 nm using a BioRad 680 microplate reader. Mean absorbance for each drug dose was expressed as percentage of the control and plotted vs. drug concentration. Dose-response curves were fitted and IC50 values were calculated with four parameter logistic model (4PL).
The cytotoxicity was evaluated by means of the MTT test for 72 h treatment with increasing concentrations of the tested compounds.

The subject of experiment [2] is C13* cisplatin resistant ovarian cancer cells. Kind of experiment: MTT cytotoxicity assay, cross-resistance profile. It is filed as cell-based, human.
From the text: (§2) Human breast (MCF-7) and colon (HCT-15, DDL1, SW480 and CaCo-2) carcinoma cell lines along with melanoma (A375) were obtained from the American Type Culture Collection (ATCC, Rockville, Md.). A431 are human cervical carcinoma cells kindly provided by Prof. F. Zunino (Molecular Pharmacology Unit, Experimental Oncology and Molecular Medicine, Istituto Nazionale dei Tumori, Milan, Italy). […] G. Marverti (Dept. of Biomedical Science, University of Modena, Italy). LoVo human colon-carcinoma cell line and its multidrug-resistant sublime (LoVo MDR) were kindly provided by Prof F. Maj one (Department of Biology of Padova University, Italy). […] Cell lines were maintained in the logarithmic phase at 37° C. in a 5% carbon dioxide atmosphere using the following culture media containing 10% fetal calf serum (Euroclone, Milan, Italy), antibiotics (50 units mL^−1 penicillin and 50 μg mL^−1 streptomycin), and 2 mM L-glutamine in: i) RPMI-1640 medium (Euroclone) for MCF-7, HCT-15, A431, DLD 1, 2008, and C13* cells; ii) F-12 HAM'S (Sigma Chemical Co.) for LoVo, LoVo MDR, and LoVo-OXP cells; iii) DMEM for A375 and SW 480 cells; and iv) MEM for CaCo-2 cells.
(§3) The growth inhibitory effect towards tumor cell lines was evaluated by means of the MTT (3-(4,5-dimethylthiazol-2-yl)-2,5-diphenyltetrazolium bromide) assay (Alley, M. C., et al., Cancer Res. 1988, 48, 589-601).
as §1, with “Briefly, depending upon the growth characteristics of the cell line, 3-8×10^3 cells well^−1, were seeded in 96-well microplates in growth medium (100 μL) and then incubated at 37° C. in a 5% carbon dioxide atmosphere. After 24” for “After 24”
(§4) A LoVo cell line retaining a multidrug resistance phenotype was also considered (LoVo MDR). Cross-resistance profiles were evaluated by means of the resistance factor (RF), which is defined as the ratio between the IC50 value for the resistant cells and that arising from the sensitive cells (Table 2).

The test system of experiment [3] is LoVo-OXP oxaliplatin resistant colon cancer cells. Kind of experiment: MTT cytotoxicity assay, cross-resistance profile. It is filed as cell-based, human.
From the text: as §2, §3
as §1, with “Briefly, depending upon the growth characteristics of the cell line, 3-8×10^3 cells well^−1, were seeded in 96-well microplates in growth medium (100 μL) and then incubated at 37° C. in a 5% carbon dioxide atmosphere. After 24” for “After 24”
as §4
In general terms: Formazan colour is commonly taken as a measure of viable cells.

The subject of experiment [4] is 2008 ovarian cancer cells. Kind of experiment: MTT cytotoxicity assay, cross-resistance profile. Format: cell-based, human. Particulars: 72 h.
From the text: as §2, §3
as §1, with “Briefly, depending upon the growth characteristics of the cell line, 3-8×10^3 cells well^−1, were seeded in 96-well microplates in growth medium (100 μL) and then incubated at 37° C. in a 5% carbon dioxide atmosphere. After 24” for “After 24”
as §4

The subject of experiment [5] is LoVo MDR multidrug resistant colon carcinoma subline. The experiment can be described thus: MTT cytotoxicity assay, cross-resistance profile. It is filed as cell-based, human.
From the text: as §2, §3
as §1, with “Briefly, depending upon the growth characteristics of the cell line, 3-8×10^3 cells well^−1, were seeded in 96-well microplates in growth medium (100 μL) and then incubated at 37° C. in a 5% carbon dioxide atmosphere. After 24” for “After 24”
as §4
In Table 2 are also reported the results obtained in a multidrug resistant (MDR) colon carcinoma subline, LoVo MDR, in which the resistance to doxorubicin, a drug belonging to the MDR spectrum, is associated with an overexpression of multi-specific drug transporters, such as the 170 kDa P-glycoprotein (P-gp) (Wersinger, C., et al., Amino Acids 2000, 19, 667-685). It is well known that acquired MDR, whereby cells become refractory to multiple drugs, poses most important challenge to the success of anticancer chemotherapy.

Another experiment relates to SW480. The experiment can be described thus: MTT cytotoxicity assay, 72 h. Format: cell-based, human. Particulars: SW480, colon.
From the text: as §2, §3
as §1, with “Briefly, depending upon the growth characteristics of the cell line, 3-8×10^3 cells well^−1, were seeded in 96-well microplates in growth medium (100 μL) and then incubated at 37° C. in a 5% carbon dioxide atmosphere. After 24” for “After 24”
(§5) Compound 1 was prepared for the first time almost twenty years ago however, until now, it had been tested (both in vitro and in vivo) only in a limited number of tumor cell lines (Hoeschele, J. D., et al., J. Med. Chem. 1994, 37, 2630-2636 and Shamsuddin, S., et al., J. Inorg. Biochem. 1996, 61, 291-301). The Pt(II) and Pt(IV) complexes containing isomeric forms of diaminocyclohexane, [PtCl2(cis-1,4-DACHA](1), [PtCl2(1R,2R-DACH)] (2), [Pt(OXA)(cis-1,4-DACH)] (3), cis,trans,cis-[Pt^IVCl2(OH)2(cis-1,4-DACH)] (4), cis,trans,cis-[Pt^IVCl2(DCA)2(cis-1,4-DACH)] (5), [Pt(CBDCA)(cis-1,4-DACH)] (6), cis,trans,cis-[Pt^IV(OXA)(OH)2(cis-1,4-DACH)] (7), and cis,trans,cis-[Pt^IV(OXA)(DCA)2(cis-1,4-DACH)] (8) were evaluated for their cytotoxic activity towards a panel of human tumor cell lines including cervical (A431), breast (MCF-7), cancers along with a melanoma (A375) and 4 different colon cancer cell lines corresponding to different stages of the disease progression (HCT-15, SW480, CaCo-2, DLD-1). The cytotoxicity was evaluated by means of the MTT test for 72 h treatment with increasing concentrations of the tested compounds.

The next experiment concerns A375. Kind of experiment: MTT cytotoxicity assay, 72 h. Particulars: A375, skin. It is filed as cell-based, human.
From the text: as §2, §3
as §1, with “Briefly, depending upon the growth characteristics of the cell line, 3-8×10^3 cells well^−1, were seeded in 96-well microplates in growth medium (100 μL) and then incubated at 37° C. in a 5% carbon dioxide atmosphere. After 24” for “After 24”
as §5

A further experiment deals with HCT-15. Kind of experiment: MTT cytotoxicity assay, 72 h. Format: cell-based, human. Particulars: HCT-15, colon.
From the text: as §2, §3
as §1, with “Briefly, depending upon the growth characteristics of the cell line, 3-8×10^3 cells well^−1, were seeded in 96-well microplates in growth medium (100 μL) and then incubated at 37° C. in a 5% carbon dioxide atmosphere. After 24” for “After 24”
as §5

A further experiment relates to A431. The experiment can be described thus: MTT cytotoxicity assay, 72 h. Format: cell-based, human. Particulars: A431, cervix.
From the text: as §2, §3
as §1, with “Briefly, depending upon the growth characteristics of the cell line, 3-8×10^3 cells well^−1, were seeded in 96-well microplates in growth medium (100 μL) and then incubated at 37° C. in a 5% carbon dioxide atmosphere. After 24” for “After 24”
as §5

The next experiment relates to DLD-1. The experiment can be described thus: MTT cytotoxicity assay, 72 h. Format: cell-based, human. Particulars: DLD-1, colon.
From the text: as §2, §3
as §1, with “Briefly, depending upon the growth characteristics of the cell line, 3-8×10^3 cells well^−1, were seeded in 96-well microplates in growth medium (100 μL) and then incubated at 37° C. in a 5% carbon dioxide atmosphere. After 24” for “After 24”
as §5

The next experiment deals with MCF-7. The experiment can be described thus: MTT cytotoxicity assay, 72 h. Format: cell-based, human. Particulars: MCF-7, breast.
From the text: as §2, §3
as §1, with “Briefly, depending upon the growth characteristics of the cell line, 3-8×10^3 cells well^−1, were seeded in 96-well microplates in growth medium (100 μL) and then incubated at 37° C. in a 5% carbon dioxide atmosphere. After 24” for “After 24”
as §5

The test system of another experiment is LoVo colon cancer cells. The experiment can be described thus: MTT cytotoxicity assay, cross-resistance profile. Format: cell-based, human. Particulars: 72 h.
From the text: (§6) Human breast (MCF-7) and colon (HCT-15, DDL1, SW480 and CaCo-2) carcinoma cell lines along with melanoma (A375) were obtained from the American Type Culture Collection (ATCC, Rockville, Md.). A431 are human cervical carcinoma cells kindly provided by Prof. F. Zunino (Molecular Pharmacology Unit, Experimental Oncology and Molecular Medicine, Istituto Nazionale dei Tumori, Milan, Italy). […] G. Marverti (Dept. of Biomedical Science, University of Modena, Italy). LoVo human colon-carcinoma cell line and its multidrug-resistant sublime (LoVo MDR) were kindly provided by Prof F. Maj one (Department of Biology of Padova University, Italy).
as §3
as §1, with “Briefly, depending upon the growth characteristics of the cell line, 3-8×10^3 cells well^−1, were seeded in 96-well microplates in growth medium (100 μL) and then incubated at 37° C. in a 5% carbon dioxide atmosphere. After 24” for “After 24”
as §4

The test system of the next experiment is CaCo-2. Kind of experiment: MTT cytotoxicity assay, 72 h. Format: cell-based, human. Particulars: CaCo-2, colon.
From the text: as §6, §3
Briefly, depending upon the growth characteristics of the cell line, 3-8×10^3 cells well^−1, were seeded in 96-well microplates in growth medium (100 μL) and then incubated at 37° C. in a 5% carbon dioxide atmosphere. […] After an overnight incubation, the inhibition of cell growth induced by the tested complexes was determined by measuring the absorbance of each well at 570 nm using a BioRad 680 microplate reader. Mean absorbance for each drug dose was expressed as percentage of the control and plotted vs. drug concentration. […]

As a reminder, the IC50 is the concentration at which inhibition is half-maximal. High values mean weaker potency, low ones greater potency. Consider “(OC-6-33)-dichloro(cis-1,4-cyclohexanediamine-N,N′)dihydroxyplatinum [Compound 4]”, for which the “IC50 values fold lower than that of cisplatin” value in [1] is reported as “up to 2”. Moreover, the IC50 in experiment [2] (C13*, 72 h, MTT) came out at 13.8 ± 3.53 µM; in [3] (LoVo-OXP, 72 h, MTT), 9.46 ± 2.15 µM; in [4] it was 9.42 ± 1.16 µM; in experiment [5] (LoVo-MDR, 72 h, MTT), 9.26 ± 2.11 µM; in the experiment on SW480, 6.32 ± 2.15 µM; in the experiment with A375 it was 6.23 ± 1.96 µM. Further, the IC50 amounted to 10.3 ± 1.42 µM in the experiment with HCT-15; 6.33 ± 1.99 µM with A431; 7.74 ± 2.16 µM with DLD-1; 7.01 ± 2.05 µM in the experiment with MCF-7; 6.64 ± 2.7 µM in the experiment on LoVo colon cancer cells; 7.12 ± 3.13 µM with CaCo-2. Also, the “R.F. (resistance factor)” value was 1.5 in [2] (IC50 C13* / IC50 2008, cross-resistance with cisplatin); 1.6 in [3] (IC50 LoVo-OXP / IC50 LoVo, cross-resistance with oxaliplatin); 1.5 in experiment [5] (IC50 LoVo-MDR / IC50 LoVo).

Source of the values: US9220705B2, “Method of treating colorectal cancer” (priority 2013, dated 2015).
